Values of other authors as cited in patent US20240197589A1, “ORAL CARE COMPOSITIONS COMPRISING GERANYLGERANIOL AND METHODS OF USE THEREOF” (AMERICAN RIVER NUTRITION, LLC, priority 2022, published 2024).

Columns and labels:
Staphylococcus aureus = conditions: S. aureus
[1] = tested on: Mycobacterium tuberculosis; conditions: M. tuberculosis, at 6.25 ug/ml
[2] = animals treated with both bisphosphonates and GG
[3] = in combination with amoxicillin, 200 mg two times per day for 5 days, following third molar removal

Row | Compound | concentration for optimum bactericidal effect (Staphylococcus aureus) [µg/mL] | decrease of viable bacterial cell count (Staphylococcus aureus; 0.15-1.25 ug/ml, within two hours) | inhibition of the bacterium [1] [%] | improved gum and extracted socket healing [2] | dilution effective against Streptococcus mutans (Streptococcus mutans) [mg/mL] | dilution exerting antibacterial effects against Porphyromonas gingivalis (Porphyromonas gingivalis) [mg/mL] | study subjects with reduced swelling and pain [3]
1 | CC(C)=CCC/C(C)=C/CC/C(C)=C/CC/C(C)=C/CO [GG, geranylgeraniol] | 0.15 to 1.25 | decreased viable bacterial cell count by a factor of two | 96 | 45-67% | – | – | –
2 | Bromelain | – | – | – | – | 2 | 4.15 | up to 70%
